Data taken from patent US20240182460A1, “ALLOSTERIC CHROMENONE INHIBITORS OF PHOSPHOINOSITIDE 3-KINASE (PI3K) FOR THE TREATMENT OF DISEASE” (PETRA PHARMA CORPORATION, priority 2022, published 2024).

Assay: Metabolic stability and intrinsic clearance in human liver microsomes (MICS)
Format: in vitro ADME
Conditions: human, microsomes, pH 7.4
Procedure: Metabolic Stability and Intrinsic Clearance in Liver Microsomes (MICS)
One objective of this assay is to measure in vitro metabolic stability of a test compound in liver microsomes of one or more different species. The concentration of a control compound in the reaction system is evaluated by LC/MS/MS for calculating intrinsic clearance of a test compound and estimating the stability of the control compound and test compound in liver microsomes of one or more different species.
Microsomes (MICS). Human Liver Microsomes (HLM), Monkey Liver Microsomes (MKLM), Dog Liver Microsomes (DLM), Rat Liver Microsomes (RLM), and Mouse Liver Microsomes (MLM) are obtained at a concentration of 20 mg/mL protein from commercial sources and stored in a −80° C. freezer. Prior to use, liver microsomes are removed from the freezer and allowed to thaw in a 37° C. water bath and then stored on wet ice.
Stock Solutions. Test Compound (TC) Stock Solutions are prepared in DMSO at a concentration of 10 mM and stored for later use. Positive Control (PC) Stock Solutions of verapamil·HCL (FW: 491.1 g/mol) in DMSO are prepared at a concentration of 10 mM (4.91 mg/mL), and stored at the condition same as the stock solutions of test compounds.
Phosphate Buffer. Phosphate Buffer (100 mM, pH 7.4) is prepared by combining a Solution A and a Solution B as follows.
To prepare Solution A, 7.098 g of disodium hydrogen phosphate was combined with 500 mL of pure water and sonicated to dissolve. To prepare the Solution B, 3.400 g of potassium dihydrogen phosphate was combined with 250 mL of pure water and sonicated to dissolve. Solution A was placed on a stirrer and Solution B was slowly added into Solution A until the pH reached 7.4.
NADPH Solution. A 10 mM NADPH Solution is prepared by dissolving NADPH (MW: 833.4 g/mol) at 8.334 mg/mL in phosphate buffer (100 mM, pH 7.4).
Microsome Master Solution. A Microsome Master Solution is prepared by adding 6.25 μL microsomes (20 mg/mL) to 216.25 μL Phosphate Buffer (100 mM). The final concentration is Phosphate Buffer (100 mM); microsomes (0.5 mg/mL).
Dilution of Stock Solutions. The TC Stock Solutions (10 mM in DMSO) and the PC Stock Solutions (10 mM in DMSO) are diluted by adding 3 μL of the TC Stock Solution or the PC Stock Solution to 297 μL of 50% acetonitrile/50% water.
Incubation. Two separated experiments were performed as follows. a) With Cofactors (NADPH): 25 μL of 10 mM NADPH was added to the incubations. The final concentrations of
microsomes and NADPH were 0.5 mg/mL and 1 mM, respectively. b) Without Cofactors (NADPH): 25 μL of 100 mM Phosphate buffer was added to the incubations. The final concentration of microsomes was 0.5 mg/mL. The mixture was pre-warmed at 37° C. for 10 minutes.
The reaction was started with the addition of 2.5 μL of 100 μM PC solution or TC solutions.
Verapamil was used as PC in this study. The final concentration of test compound or control compound was 1 μM. The incubation solution was incubated in water batch at 37° C.
Reaction Termination. Aliquots of 30 μL were taken from the reaction solution at 0.5, 5, 15, 30 and 60 minutes and added to plates. The reaction was stopped by the addition of 5 volumes of cold acetonitrile and a solution containing 100 nM alprazolam, 200 nM caffeine and 100 nM tolbutamide.
Sampling. The plates containing the terminated reactions were centrifuged at 4000 rpm for 30 minutes. Supernatant of each compound (40 μL) was transferred into a 96-well analysis plate.
Four compound samples are pooled together into one cassette and diluted by adding 160 μL of pure water. All incubations are performed in duplicate.
Analysis and Data Processing. Quantitative LC-MS analysis is performed, and peak areas are determined from extracted ion chromatograms. Percent parent remaining was calculated from peak area of TC or PC. The slope value, k, is determined by linear regression of the natural logarithm of percent parent remaining vs. incubation time curve. […]

| microsomal CLint at 1 μM | Compound |
| --- | --- |
| < 50 µL/min/mg | Cc1cc([C@@H](C)Oc2ccc(Cl)nc2-c2noc(=O)[nH]2)c2oc(-c3ccc4nn(C)cc4c3)c(C)c(=O)c2c1 [Example 18A, 3-[6-Chloro-3-[(1R)-1-[3,6-dimethyl-2-(2-methylindazol-5-yl)-4-oxo-chromen-8-yl]ethoxy]-2-pyridyl]-4H-1,2,4-oxadiazol-5-one] |
| < 50 µL/min/mg | Cc1cc([C@@H](C)Oc2ccc(Cl)nc2S(N)(=O)=O)c2oc(-c3cnn(C)c3C#N)c(C)c(=O)c2c1 [Example 21C, 6-Chloro-3-[(1R)-1-[2-(5-cyano-1-methyl-pyrazol-4-yl)-3,6-dimethyl-4-oxo-chromen-8-yl]ethoxy]pyridine-2-sulfonamide] |
| < 50 µL/min/mg | Cc1cc([C@@H](C)Oc2ccc(Cl)nc2S(N)(=O)=O)c2oc(-c3cncnc3)c(C)c(=O)c2c1 [Example 38A, 6-Chloro-3-[(1R)-1-(3,6-dimethyl-4-oxo-2-pyrimidin-5-yl-chromen-8-yl)ethoxy]pyridine-2-sulfonamide] |
| < 50 µL/min/mg | Cc1cc([C@@H](C)Oc2ccc(Cl)nc2C(N)=O)c2oc(-c3cnn4ncccc34)c(C)c(=O)c2c1 [Example 39C, 6-Chloro-3-[(1R)-1-(3,6-dimethyl-4-oxo-2-pyrazolo[1,5-b]pyridazin-3-yl-chromen-8-yl)ethoxy]pyridine-2-carboxamide] |
| < 50 µL/min/mg | Cc1cc([C@@H](C)Oc2ccc(Cl)nc2-c2noc(=O)[nH]2)c2oc(-c3cnn4c3COCC4)c(C)c(=O)c2c1 [Example 41A, 3-[6-Chloro-3-[(1R)-1-[2-(6,7-dihydro-4H-pyrazolo[5,1-c][1,4]oxazin-3-yl)-3,6-dimethyl-4-oxo-chromen-8-yl]ethoxy]-2-pyridyl]-4H-1,2,4-oxadiazol-5-one] |
| < 50 µL/min/mg | Cc1cc([C@@H](C)Oc2ccc(Cl)nc2C(N)=O)c2oc(-c3cc4cn(C)nc4cc3F)c(C)c(=O)c2c1 [Example 42C, 6-Chloro-3-[(1R)-1-[2-(6-fluoro-2-methyl-indazol-5-yl)-3,6-dimethyl-4-oxo-chromen-8-yl]ethoxy]pyridine-2-carboxamide] |
| < 50 µL/min/mg | Cc1cc([C@@H](C)Oc2ccc(Cl)nc2-c2noc(=O)[nH]2)c2oc(-c3cnc4c(c3)OCCO4)c(C)c(=O)c2c1 [Example 47A, 3-[6-Chloro-3-[(1R)-1-[2-(2,3-dihydro-[1,4]dioxino[2,3-b]pyridin-7-yl)-3,6-dimethyl-4-oxo-chromen-8-yl]ethoxy]-2-pyridyl]-4H-1,2,4-oxadiazol-5-one] |
| < 50 µL/min/mg | Cc1cc([C@@H](C)Oc2ccc(Cl)nc2C(N)=O)c2oc(-c3ccc4c(c3)C(C)(C)OC(=O)N4)c(C)c(=O)c2c1 [Example 47C, 6-Chloro-3-[(1R)-1-[2-(4,4-dimethyl-2-oxo-1H-3,1-benzoxazin-6-yl)-3,6-dimethyl-4-oxo-chromen-8-yl]ethoxy]pyridine-2-carboxamide] |
| < 50 µL/min/mg | Cc1cc([C@@H](C)Oc2ccc(Cl)nc2-c2noc(=O)[nH]2)c2oc(C3CC3)c(C)c(=O)c2c1 [Example 64A, 3-[6-Chloro-3-[(1R)-1-(2-cyclopropyl-3,6-dimethyl-4-oxo-chromen-8-yl)ethoxy]-2-pyridyl]-4H-1,2,4-oxadiazol-5-lone] |
| < 50 µL/min/mg | Cc1cc([C@@H](C)Oc2ccc(Cl)nc2C(N)=O)c2oc(-c3cncnc3)c(C)c(=O)c2c1 [Example 67A, 6-Chloro-3-[(1R)-1-(3,6-dimethyl-4-oxo-2-pyrimidin-5-yl-chromen-8-yl)ethoxy]pyridine-2-carboxamide] |
| < 50 µL/min/mg | Cc1cc([C@@H](C)Oc2ccc(Cl)nc2C(N)=O)c2oc(-c3cnccn3)c(C)c(=O)c2c1 [Example 78C, 6-Chloro-3-[(1R)-1-(3,6-dimethyl-4-oxo-2-pyrazin-2-yl-chromen-8-yl)ethoxy]pyridine-2-carboxamide] |
| < 50 µL/min/mg | Cc1cc([C@@H](C)Oc2ccc(Cl)nc2-c2noc(=O)[nH]2)c2oc(-c3cnn4c3CCC4)c(C)c(=O)c2c1 [Example 102A, 3-[6-Chloro-3-[(1R)-1-[2-(5,6-dihydro-4H-pyrrolo[2,1-e]pyrazol-3-yl)-3,6-dimethyl-4-oxo-chromen-8-yl]ethoxy]-2-pyridyl]-4H-1,2,4-oxadiazol-5-one] |

More lines, now with the values behind:

| Compound | microsomal CLint at 1 μM |
| --- | --- |
| Cc1cc([C@@H](C)Oc2ccc(F)nc2C(N)=O)c2oc(-c3ccc4nn(C)cc4c3)cc(=O)c2c1 [Example 19B, 6-Fluoro-3-[(1R)-1-[6-methyl-2-(2-methylindazol-5-yl)-4-oxo-chromen-8-yl]ethoxy]pyridine-2-carboxamide] | < 50 µL/min/mg |
| Cc1cc([C@@H](C)Oc2cccnc2C(=O)NOC(C)(C)C)c2oc(-c3ccc4nn(C)cc4c3)c(C)c(=O)c2c1 [Example 24A, N-tert-Butoxy-3-[(1R)-1-[3,6-dimethyl-2-(2-methylindazol-5-yl)-4-oxo-chromen-8-yl]ethoxy]pyridine-2-carboxamide] | < 50 µL/min/mg |
| Cc1cc([C@@H](C)Oc2ccc(Cl)nc2S(N)(=O)=O)c2oc(-c3cccc(C#N)c3)c(C)c(=O)c2c1 [Example 24C, 6-Chloro-3-[(1R)-1-[2-(3-cyanophenyl)-3,6-dimethyl-4-oxo-chromen-8-yl]ethoxy]pyridine-2-sulfonamide] | < 50 µL/min/mg |
| Cc1cc([C@@H](C)Oc2ccc(Cl)nc2S(N)(=O)=O)c2oc(-c3ccc(C#N)cc3)c(C)c(=O)c2c1 [Example 25C, 6-Chloro-3-[(1R)-1-[2-(4-cyanophenyl)-3,6-dimethyl-4-oxo-chromen-8-yl]ethoxy]pyridine-2-sulfonamide] | < 50 µL/min/mg |
| Cc1cc([C@@H](C)Oc2ccc(Cl)nc2C(=O)NOC(C)(C)C)c2oc(-c3ccc4nn(C)cc4c3)c(C)c(=O)c2c1 [Example 27A, N-tert-Butoxy-6-chloro-3-[(1R)-1-[3,6-dimethyl-2-(2-methylindazol-5-yl)-4-oxo-chromen-8-yl]ethoxy]pyridine-2-carboxamide] | < 50 µL/min/mg |
| Cc1cc([C@@H](C)Oc2ccc(F)c(F)c2C(N)=O)c2oc(-c3cnn(C)c3)c(C)c(=O)c2c1 [Example 31A, 6-[(1R)-1-[3,6-Dimethyl-2-(1-methylpyrazol-4-yl)-4-oxo-chromen-8-yl]ethoxy]-2,3-difluoro-benzamide] | < 50 µL/min/mg |
| COc1cc(-c2oc3c([C@@H](C)Oc4ccc(Cl)nc4C(N)=O)cc(C)cc3c(=O)c2C)cc2cn(C)nc12 [Example 44C, 6-Chloro-3-[(1R)-1-[2-(7-methoxy-2-methyl-indazol-5-yl)-3,6-dimethyl-4-oxo-chromen-8-yl]ethoxy]pyridine-2-carboxamide] | < 50 µL/min/mg |
| Cc1cc([C@@H](C)Oc2ccc(Cl)nc2C(N)=O)c2oc(-c3cc(C#N)c4nn(C)cc4c3)c(C)c(=O)c2c1 [Example 52C, 6-Chloro-3-[(1R)-1-[2-(7-cyano-2-methyl-indazol-5-yl)-3,6-dimethyl-4-oxo-chromen-8-yl]ethoxy]pyridine-2-carboxamide] | < 50 µL/min/mg |
| Cc1cc([C@@H](C)Oc2ccc(F)nc2S(N)(=O)=O)c2oc(-c3cnc4ccoc4c3)c(C)c(=O)c2c1 [Example 73C, 6-Fluoro-3-[(1R)-1-(2-furo[3,2-b]pyridin-6-yl-3,6-dimethyl-4-oxo-chromen-8-yl)ethoxy]pyridine-2-sulfonamide] | < 50 µL/min/mg |
| Cc1cc([C@@H](C)Oc2ccccc2S(N)(=O)=O)c2oc(-c3cnn(C)c3)c(C)c(=O)c2c1 [Example 103C, 2-[(1R)-1-[3,6-Dimethyl-2-(1-methylpyrazol-4-yl)-4-oxo-chromen-8-yl]ethoxy]benzenesulfonamide] | < 50 µL/min/mg |
